{"source": "paper PMC9652263", "about": "(Investigational New Drugs, 2022)", "key": {"[1]": {"experiment": "clinical", "conditions": "human, in vivo", "description": "(§1) Blood and plasma concentration–time profiles were analyzed by standard non-compartmental methods. Individual PK parameters were tabulated and summarized.\n(§2) Both drugs were measured by validated liquid extraction methods followed by ultra-performance liquid chromatography tandem mass-spectrometry detection (Dynakin, Derio, Spain)."}, "[2]": {"tested_on": "SCLC, breast, ovarian, endometrial cancer, NSCLC", "conditions": "cited from earlier work"}, "[3]": {"conditions": "for HL, Mean: transformed into the natural logarithm", "description": "as §1, §2"}, "[4]": {"tested_on": "patients", "conditions": "single-agent weekly paclitaxel; cited from earlier work"}, "[5]": {"tested_on": "patients with advanced solid tumors", "experiment": "Dose escalation and dose-limiting toxicities (phase I, 3+3 design)", "conditions": "combination q3wk; paclitaxel on D1 and D8, lurbinectedin on D1", "description": "Furthermore, during dose escalation lurbinectedin was converted to a body surface area (BSA)-based dose.\nThe DL5 cohort was then expanded, converting lurbinectedin to a BSA-based dose of 2.2 mg/m^2 (calculated by dividing 4.0 mg FD by a BSA of 1.8 m^2).\nPatient accrual began in Group A, with dose escalation following a standard 3+3 design. […] During dose escalation in Group A, lurbinectedin was converted to a body surface area (BSA)-based dose (calculated by dividing the allocated FD by a BSA of 1.8 m^2)."}, "[6]": {"tested_on": "patients with advanced solid tumors", "conditions": "cited from earlier work"}, "[7]": {"conditions": "Cycle 1, DL1: paclitaxel 60 / lurbinectedin 3.0 mg FD, mean (SD)"}, "[8]": {"conditions": "Cycle 1, DL2: paclitaxel 60 / lurbinectedin 4.0 mg FD, mean (SD)"}, "[9]": {"conditions": "Cycle 1, DL3: paclitaxel 60 / lurbinectedin 5.0 mg FD, mean (SD)"}, "[10]": {"conditions": "Cycle 1, DL4 (MTD): paclitaxel 80 / lurbinectedin 5.0 mg FD, mean (SD)"}, "[11]": {"conditions": "Cycle 1, DL5 (RD): paclitaxel 80 / lurbinectedin 2.2 mg/m^2, mean (SD)"}, "[12]": {"conditions": "Cycle 1, DL5 (RD): paclitaxel 80 / lurbinectedin 4.0 mg FD, mean (SD)"}, "[13]": {"conditions": "Cycle 1, RD + BEV 80 / 2.2 / 15, mean (SD)"}}, "note": "Where “and” joins values, the source holds several entries; their conditions need not be identical. Identical values can stand only once. Like-named read-outs stand apart in the source and are kept apart here.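 Wherever CL is given: blood and plasma drug levels in patients quantified by UPLC tandem mass spectrometry, with PK parameters derived by non-compartmental analysis of concentration–time profiles.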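 Wherever Cmax is given: blood and plasma drug levels in patients quantified by UPLC tandem mass spectrometry, with PK parameters derived by non-compartmental analysis of concentration–time profiles.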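 Wherever Vd is given: blood and plasma drug levels in patients quantified by UPLC tandem mass spectrometry, with PK parameters derived by non-compartmental analysis of concentration–time profiles.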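 Wherever potential drug-drug interaction: CL of each drug at the high AUC of the other drug is given: blood and plasma drug levels in patients quantified by UPLC tandem mass spectrometry, with PK parameters derived by non-compartmental analysis of concentration–time profiles.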"}
{"compound": "CC(=O)O[C@H]1C(=O)[C@@]2(C)[C@H]([C@H](OC(=O)c3ccccc3)[C@]3(O)C[C@H](OC(=O)[C@H](O)[C@@H](NC(=O)c4ccccc4)c4ccccc4)C(C)=C1C3(C)C)[C@]1(OC(C)=O)CO[C@@H]1C[C@@H]2O", "note": "[Paclitaxel]", "values": [{"measurement": "clearance", "setting": "[1]; 2.2 mg/m2, CL", "value": 525, "unit": "mL/min"}, {"measurement": "Vd", "setting": "[1]; 2.2 mg/m2, Vss", "value": 324, "unit": "L"}, {"measurement": "Vd", "setting": "[1]; 2.2 mg/m2, Vz", "value": 662, "unit": "L"}, {"measurement": "clearance", "setting": "[1]; 3 mg, CL", "value": 437, "unit": "mL/min"}, {"measurement": "Cmax", "setting": "[1]; 3 mg", "value": 2370, "unit": "ng/mL"}, {"measurement": "Vd", "setting": "[1]; 3 mg, Vss", "value": 315, "unit": "L"}, {"measurement": "Vd", "setting": "[1]; 3 mg, Vz", "value": 689, "unit": "L"}, {"measurement": "half-life", "setting": "[1]; 4 mg", "value": 29.2, "unit": "h"}, {"measurement": "clearance", "setting": "[1]; 4 mg, CL", "value": 487, "unit": "mL/min"}, {"measurement": "Cmax", "setting": "[1]; 4 mg", "value": 1500, "unit": "ng/mL"}, {"measurement": "Vd", "setting": "[1]; 4 mg, Vss", "value": 577, "unit": "L"}, {"measurement": "Vd", "setting": "[1]; 4 mg, Vz", "value": 934, "unit": "L"}, {"measurement": "clearance", "setting": "[1]; 5 mg, CL", "value": 575, "unit": "mL/min"}, {"measurement": "Cmax", "setting": "[1]; 5 mg", "value": 1980, "unit": "ng/mL"}, {"measurement": "Vd", "setting": "[1]; 5 mg, Vss", "value": 430, "unit": "L"}, {"measurement": "Vd", "setting": "[1]; 5 mg, Vz", "value": 858, "unit": "L"}, {"measurement": "response rate", "setting": "[2]; single-agent weekly 80 mg/m^2/week, metastatic breast cancer", "value": "22–42%"}, {"measurement": "response rate", "setting": "[2]; single-agent weekly 80 mg/m^2/week, relapsed ovarian cancer", "value": "21–60%"}, {"measurement": "response rate", "setting": "[2]; single-agent weekly 80 mg/m^2/week, relapsed/refractory SCLC", "value": "20–27%"}, {"measurement": "potential drug-drug interaction: CL of each drug at the high AUC of the other drug", "setting": "[3]; human, in vivo", "value": "slight decrease"}, {"measurement": "variability of total clearance (CL)", "setting": "[3]; human, in vivo", "value": "Wide variability"}, {"measurement": "Cmax", "setting": "[3]; human, in vivo, 2.2 mg/m2", "value": "3004 (971.4) μg/L"}, {"measurement": "CL", "setting": "[3]; human, in vivo, 4 mg", "value": "31.1 (6.2) L/h"}, {"measurement": "Cmax", "setting": "[3]; human, in vivo, 4 mg", "value": "2908 (482.2) μg/L"}, {"measurement": "Vss", "setting": "[3]; human, in vivo, 4 mg", "value": "315.3 (89.7) L"}, {"measurement": "Vz", "setting": "[3]; human, in vivo, 4 mg", "value": "639.9 (128.6) L"}, {"measurement": "CL", "setting": "[3]; human, in vivo, 5 mg", "value": "30.2 (8.6) L/h"}, {"measurement": "Cmax", "setting": "[3]; human, in vivo, 5 mg", "value": "3122 (1420) μg/L"}, {"measurement": "Vss", "setting": "[3]; human, in vivo, 5 mg", "value": "323.2 (266.8) L"}, {"measurement": "Vz", "setting": "[3]; human, in vivo, 5 mg", "value": "627.5 (185.2) L"}, {"measurement": "incidence of peripheral neuropathy, grade 3/4", "setting": "[4]", "value": "3–21%"}]}
{"compound": "COc1ccc2[nH]c3c(c2c1)CCN[C@]31CS[C@@H]2c3c(OC(C)=O)c(C)c4c(c3[C@H](COC1=O)N1[C@@H]2[C@H]2c3c(cc(C)c(OC)c3O)C[C@@H]([C@@H]1O)N2C)OCO4", "note": "[Lurbinectedin]", "values": [{"measurement": "recommended dose (RD)", "setting": "[5]", "value": 2.2, "unit": "mg/m^2"}, {"measurement": "response rate", "setting": "[2]; monotherapy, BRCA-unselected breast cancer", "value": 9, "unit": "%"}, {"measurement": "response rate", "setting": "[2]; monotherapy, ovarian cancer", "value": "14–23%"}, {"measurement": "response rate", "setting": "[2]; monotherapy, second-line treatment of patients with SCLC", "value": 35, "unit": "%"}, {"measurement": "recommended dose (RD), single-agent", "setting": "[6]; 1-h i.v. infusion q3wk", "value": "7.0 mg flat dose (FD) and 7 mg flat dose (FD)"}, {"measurement": "median half-life", "setting": "[6]; single agent at the RD (7 mg FD)", "value": 70.6, "unit": "h"}, {"measurement": "AUC", "setting": "[3]; Cycle 1, DL1: paclitaxel 60 mg/m^2 D1,D8,D15 / lurbinectedin 3.0 mg FD, mean (SD)", "value": "405.9 (129.6) h* μg/L"}, {"measurement": "CL", "setting": "[3]; [7]", "value": "7.8 (2.2) L/h"}, {"measurement": "Cmax", "setting": "[3]; [7]", "value": "97.7 (45.5) μg/L"}, {"measurement": "HL (terminal half-life)", "setting": "[3]; [7]", "value": "52.8 (3.7) h"}, {"measurement": "Vss", "setting": "[3]; [7]", "value": "299.4 (84.4) L"}, {"measurement": "Vz", "setting": "[3]; [7]", "value": "602.1 (193.0) L"}, {"measurement": "AUC", "setting": "[3]; Cycle 1, DL2: paclitaxel 60 mg/m^2 D1,D8,D15 / lurbinectedin 4.0 mg FD, mean (SD)", "value": "357.9 (174.2) h* μg/L"}, {"measurement": "CL", "setting": "[3]; [8]", "value": "14.2 (9.4) L/h"}, {"measurement": "Cmax", "setting": "[3]; [8]", "value": "74.0 (18.9) μg/L"}, {"measurement": "HL (terminal half-life)", "setting": "[3]; [8]", "value": "82.1 (65.7) h"}, {"measurement": "Vss", "setting": "[3]; [8]", "value": "733.7 (415.1) L"}, {"measurement": "Vz", "setting": "[3]; [8]", "value": "1161 (563.2) L"}, {"measurement": "AUC", "setting": "[3]; Cycle 1, DL3: paclitaxel 60 mg/m^2 D1,D8,D15 / lurbinectedin 5.0 mg FD, mean (SD)", "value": "714.0 (416.3) h* μg/L"}, {"measurement": "CL", "setting": "[3]; [9]", "value": "8.8 (4.0) L/h"}, {"measurement": "Cmax", "setting": "[3]; [9]", "value": "127.0 (74.0) μg/L"}, {"measurement": "HL (terminal half-life)", "setting": "[3]; [9]", "value": "46.6 (15.5) h"}, {"measurement": "Vss", "setting": "[3]; [9]", "value": "343.2 (150.1) L"}, {"measurement": "Vz", "setting": "[3]; [9]", "value": "530.8 (164.6) L"}, {"measurement": "AUC", "setting": "[3]; Cycle 1, DL4 (MTD): paclitaxel 80 mg/m^2 D1,D8 / lurbinectedin 5.0 mg FD, mean (SD)", "value": "376.2 (151.4) h* μg/L"}, {"measurement": "CL", "setting": "[3]; [10]", "value": "15.2 (6.0) L/h"}, {"measurement": "Cmax", "setting": "[3]; [10]", "value": "109.5 (28.4) μg/L"}, {"measurement": "HL (terminal half-life)", "setting": "[3]; [10]", "value": "38.6 (8.3) h"}, {"measurement": "Vss", "setting": "[3]; [10]", "value": "401.8 (99.1) L"}, {"measurement": "Vz", "setting": "[3]; [10]", "value": "806.0 (243.4) L"}, {"measurement": "AUC", "setting": "[3]; Cycle 1, DL5 (RD): paclitaxel 80 mg/m^2 D1,D8 / lurbinectedin 2.2 mg/m^2, mean (SD)", "value": "440.5 (224.4) h* μg/L"}, {"measurement": "AUC", "setting": "[3]; Cycle 1, DL5 (RD): paclitaxel 80 mg/m^2 D1,D8 / lurbinectedin 4.0 mg FD, mean (SD)", "value": "436.2 (238.3) h* μg/L"}, {"measurement": "CL", "setting": "[3]; [11]", "value": "11.1 (5.3) L/h"}, {"measurement": "Cmax", "setting": "[3]; [11]", "value": "96.3 (34.7) μg/L"}, {"measurement": "HL (terminal half-life)", "setting": "[3]; [11]", "value": "49.3 (22.5) h"}, {"measurement": "Vss", "setting": "[3]; [11]", "value": "454.9 (222.6) L"}, {"measurement": "Vz", "setting": "[3]; [11]", "value": "727.6 (346.9) L"}, {"measurement": "CL", "setting": "[3]; [12]", "value": "12.0 (7.0) L/h"}, {"measurement": "Cmax", "setting": "[3]; [12]", "value": "83.9 (42.5) μg/L"}, {"measurement": "HL (terminal half-life)", "setting": "[3]; [12]", "value": "47.1 (23.0) h"}, {"measurement": "Vss", "setting": "[3]; [12]", "value": "420.9 (182.7) L"}, {"measurement": "Vz", "setting": "[3]; [12]", "value": "701.8 (268.9) L"}, {"measurement": "CL", "setting": "[3]; [13]", "value": "13.8 (6.5) L/h"}, {"measurement": "Cmax", "setting": "[3]; [13]", "value": "88.7 (28.9) μg/L"}, {"measurement": "HL (terminal half-life)", "setting": "[3]; [13]", "value": "40.0 (15.7) h"}, {"measurement": "Vss", "setting": "[3]; [13]", "value": "408.5 (161.7) L"}, {"measurement": "Vz", "setting": "[3]; [13]", "value": "724.9 (340.5) L"}, {"measurement": "AUC", "setting": "[3]; Cycle 1, RD + BEV: paclitaxel 80 mg/m^2 / lurbinectedin 2.2 mg/m^2 / BEV 15 mg/kg, mean (SD)", "value": "351.2 (175.9) h* μg/L"}, {"measurement": "differences in PK parameters in the presence or absence of BEV", "setting": "[3]; RD in Group A vs Group B, Cycle 1", "value": "No statistically significant differences"}, {"measurement": "variability of total clearance (CL)", "setting": "[3]; all dose levels", "value": "Wide variability"}, {"measurement": "dose linearity of maximum concentration (Cmax) and AUC", "setting": "[3]; dose levels 3.0–5.0 mg FD in combination with paclitaxel", "value": "No dose linearity could be established"}, {"measurement": "potential drug-drug interaction: CL of each drug at the high AUC of the other drug", "setting": "[3]; paclitaxel with lurbinectedin", "value": "slight decrease"}, {"measurement": "HL, Mean", "setting": "[3]; Cycle 1, Group A at the RD (31 patients)", "value": 3.802}, {"measurement": "HL, Mean", "setting": "[3]; Cycle 1, Group B with BEV (12 patients)", "value": 3.603}]}
{"compound": "Bevacizumab", "values": [{"measurement": "improvement in ORR with the addition of BEV to chemotherapy vs. chemotherapy alone", "setting": "[2]; recurrent ovarian cancer and previously untreated NSCLC", "value": "15–20%"}]}
